Laboratory results reported in US20150124259A1, “Method For Biodynamic Spectroscope Imaging” (Purdue Research Foundation, priority 2013, published 2015).

Experiments:
Type in all cases: cell-based
tumor spheroids (UMR106) = assay: Biodynamic spectroscopic imaging (BSI) of mitosis events in tumor spheroids, single-band thresholding (Taxol treatment)
Excerpt: The mitosis phase has its own fingerprint because mitosis is one of the most dramatic events in a cell's life. However compared to the dynamic speckle from an entire tumor spheroid, the signal of the mitosis of a single cell is very weak. The statistical TDS technique is not able to show the mitosis events of single cells. On the other hand, BSI may be applied to generate a voxel based microspectrograms. In the current TDS system, the transverse and longitudinal resolution are 9 μm and 18 μm, and the typical size of UMR106 cell in tumor spheroid is about 10 um. Therefore, on the reconstructed image, each pixel contains about 4 cells. However the spectrum of a single pixel is too noisy to perform analysis, so 2×2 pixels can be preferably used as the balance point to calculate the spectra of the voxels. Thus, according to one aspect of the BSI method disclosed herein, the 3D image is reconstructed as voxels, rather than pixels, in which a voxel includes 2×2 pixels. The microspectrograms are then generated for each voxel, rather than pixel, which substantially eliminates the effect of noise in the image.
Therefore, for a single voxel, the normalized spectra from five datasets (20 mins) can be averaged together, with no risk of “missing” a biological event of the cell. By combining these normalized spectra together, the micro (voxel) spectrograms are generated. The baseline is the averaged spectrum over the entire tissue when it is only surrounded by growth medium. During the entire experimental period, each voxel corresponds to one spectrogram. A frequency vs. time fluctuation spectral response image of the tumor spheroid is constructed.
The frequency range is picked at a mid-high frequency band (0.52 Hz to 1 Hz, marked as a box in FIG. 7) and enhancement is picked as the finger print of the mitosis. The enhancement in this frequency range indicates both cell membrane undulation and cell organelle motion during mitosis. […] The prior approach discussed above referred to single-band thresholding that used the third case baseline described above as essentially a pixel-based TDS. This pixel-based TDS approach fails to isolate mitosis from other biological processes and to isolate mitosis from noise. Therefore, single-band thresholding only correctly acquires mitosis information when using the first or second case baselines described above.
Paclitaxel is a mitotic inhibitor used as an anti-cancer drug. It can stabilize microtubules so that cell division during mitosis can be interrupted. Experiments were performed using 2 concentrations of Paclitaxel: 1 μg/ml and 10 μg/ml. The tumor spheroids in these experiments were 430 μm diameter (1 μg/ml) and 410 μm diameter (10 μg/ml). The baselines were taken as described above. After 40 minutes, the original growth medium was replaced by medium with Paclitaxel. The data was collected for six hours, and the resulting macrospectrograms of the experiments are shown in FIG. 9b for 1 μg/ml and FIG. 9c for 10 μg/ml.
The thresholding used in this example is based on the single-band method using the first case baseline described above that averages the baseline over all pixels for all times. […] Each light speckle in each image represents a mitosis event. […] The mitosis events depicted in the BSI images of FIG. 10 are quantified in the graph of FIG. 11. The y-axis of the graph is the density of the voxels which are in the mitosis phase expressed as a fraction of the mitotic voxels to the total number of voxels for the underlying image. […]

DLD-1 tumor spheroid = assay: BSI imaging of tumor heterogeneity of drug response in DLD-1 tumor spheroid
Excerpt: In a previous co-pending application Ser. No. 13/760,827, entitled “System and Method for Determining Modified States of Health of Living Tissue”, filed on Feb. 6, 2013, and published as Pub. No. 2013/0144151 (the '151 application), the entire disclosure of which is incorporated herein by reference, a method is described that uses time-frequency masks to extract feature vectors. Multiple masks are used to create feature vectors that are then used to classify a drug response. In accordance with the present disclosure, the BSI techniques described herein can use the same or similar time-frequency masks to capture different mechanisms related to the drug action, and then perform the analysis on a per-pixel basis to generate “hyperspectral” maps of the tumor response to drugs. Because the signal-to-noise of single-pixel power spectra for biodynamic spectroscopic imaging (BSI) is not as large as for tissue dynamics spectroscopy (TDS) that averages over many pixels, it is necessary to modify the time-frequency mask from that described in the '151 application. The time-frequency spectral power density is given by S(ω,T). This power spectrum typically has a power-law decay at higher frequencies, with several orders of magnitude in vertical dynamic range. […]

[1] = test system: ex vivo biopsy sample of canine multicentric B-cell lymphoma; assay: BSI of drug response of ex vivo biopsy sample; details: two-color pixel map
Excerpt: An additional example of BSI is shown in FIG. 18 for an ex vivo biopsy sample of canine multicentric B-cell lymphoma. […] This signature is coded in green in the BSI image. The other spectral signature had low-frequency enhancement and high-frequency suppression, which is coded as red in the BSI image. […] This ex vivo biopsy is responding to the anticancer drug doxorubicin.

SMILES: CC(=O)O[C@H]1C(=O)[C@@]2(C)[C@H]([C@H](OC(=O)c3ccccc3)[C@]3(O)C[C@H](OC(=O)[C@H](O)[C@@H](NC(=O)c4ccccc4)c4ccccc4)C(C)=C1C3(C)C)[C@]1(OC(C)=O)CO[C@@H]1C[C@@H]2O [Paclitaxel]
- mitotic events, fraction of mitotic voxels to total voxels over time (FIG. 11) (tumor spheroids (UMR106); 1 μg/ml, 430 μm diameter spheroid, compared with negative controls): fewer mitotic events and decayed faster
- mitosis remaining after drug application (FIG. 11) (tumor spheroids (UMR106); 1 μg/ml, six hours after applying): still slight mitosis
- mitotic events, fraction of mitotic voxels to total voxels over time (FIG. 11) (tumor spheroids (UMR106); 410 μm diameter spheroid): decayed the fastest
- mitosis activity inside the tumor spheroids (BSI images, FIG. 10) (tumor spheroids (UMR106); Taxol treated vs untreated, single-band threshold 0.52-1.0 Hz, nearly six hours): significantly reduced
- mitosis remaining after drug application (FIG. 11) (tumor spheroids (UMR106); two hours after applying the drug): almost no mitosis at all

SMILES: CNC(=O)c1cc(Oc2ccc(NC(=O)Nc3ccc(Cl)c(C(F)(F)F)c3)cc2)ccn1 [Sorafenib]
- homogeneity of the response across the specimen (FIGS. 16c, 17) (DLD-1 tumor spheroid; BSI image and classification map): majority of the specimen is unaffected or only slightly affected
- BSI spectral response to drug, spatial distribution (FIG. 16c) (DLD-1 tumor spheroid; spheroid approximately 600 microns in diameter, periphery vs interior): highest magnitude in the proliferating shell, with low (dark) response internal to the tumor

SMILES: COc1cccc2c1C(=O)c1c(O)c3c(c(O)c1C2=O)C[C@@](O)(C(=O)CO)C[C@@H]3O[C@H]1C[C@H](N)[C@H](O)[C@H](C)O1 [doxorubicin]
- BSI spectral responses of tissue to drug (FIG. 18) [1]: two very different spectral responses
